Reference: ChEMBL document CHEMBL5154741, “Antibacterial alkylguanidino ureas: Molecular simplification approach, searching for membrane-based MoA” (Eur J Med Chem, 2022)
Active and inactive are the calls of the source. The rule behind the calls is not given here.

Key:
[1] = tested on: Lipid bilayer; assay: Binding affinity to bacterial membrane mimic POPG large unilamellar vesicle assessed as hyperchromic shift at 125 uM measured after 1 hr by UV-Vis spectrophotometric analysis
[2] = tested on: Cell membrane; assay: Disruption of membrane integrity in Acinetobacter baumannii ATCC 17978 assessed as increase in PI uptake at 16 ug/ml measured after 15 mins by SYTO9/PI staining based fluorometric analysis; details: dose 16.0 µg/ml
[3] = tested on: Bacillus subtilis; assay: Antibacterial activity against Bacillus subtilis ATCC 6633 assessed as bacterial growth inhibition incubated for 18 hrs by CLSI based micro-dilution broth method; assay type: functional
[4] = tested on: Enterococcus faecalis; assay: Antibacterial activity against Enterococcus faecalis ATCC 19433 assessed as bacterial growth inhibition incubated for 18 hrs by micro-dilution broth method; assay type: functional
[5] = tested on: Streptococcus pyogenes; assay: Antibacterial activity against Streptococcus pyogenes ATCC 12344 assessed as bacterial growth inhibition incubated for 18 hrs by micro-dilution broth method; assay type: functional
[6] = tested on: Staphylococcus aureus; assay: Antibacterial activity against Staphylococcus aureus ATCC 25923 assessed as bacterial growth inhibition incubated for 18 hrs by micro-dilution broth method; assay type: functional
[7] = tested on: Escherichia coli; assay: Antibacterial activity against Escherichia coli CCUG assessed as bacterial growth inhibition incubated for 18 hrs by micro-dilution broth method; assay type: functional
[8] = tested on: Klebsiella pneumoniae; assay: Antibacterial activity against Klebsiella pneumoniae ATCC 13833 assessed as bacterial growth inhibition incubated for 18 hrs by micro-dilution broth method; assay type: functional
[9] = tested on: Acinetobacter baumannii; assay: Antibacterial activity against Acinetobacter baumannii ATCC 17978 assessed as bacterial growth inhibition incubated for 18 hrs by micro-dilution broth method; assay type: functional
[10] = tested on: Pseudomonas aeruginosa; assay: Antibacterial activity against Pseudomonas aeruginosa ATCC 27853 assessed as bacterial growth inhibition incubated for 18 hrs by micro-dilution broth method; assay type: functional
[11] = tested on: Lipid bilayer; assay: Binding affinity to bacterial membrane mimic POPG large unilamellar vesicle assessed as bathochromic shift at 125 uM measured at t = 0 by UV-Vis spectrophotometric analysis
[12] = Apparent permeability of the compound across bacterial inner membrane mimic PC-phospholipids in PBS buffer at pH 7.4 incubated for 5 hrs by PAMPA based UV-Vis spectrophotometric analysis; assay type: ADME
[13] = Apparent permeability of the compound across bacterial inner membrane mimic PC-phospholipids in PBS buffer assessed as membrane retention at pH 7.4 incubated for 5 hrs by PAMPA based UV-Vis spectrophotometric analysis; assay type: ADME, cell membranes; details: pH 7.4, 5 h
[14] = Apparent permeability of the compound across bacterial inner membrane mimic pure POPG in PBS buffer at pH 7.4 incubated for 5 hrs by PAMPA based UV-Vis spectrophotometric analysis; assay type: ADME
[15] = Apparent permeability of the compound across bacterial inner membrane mimic pure POPG in PBS buffer assessed as membrane retention at pH 7.4 incubated for 5 hrs by PAMPA based UV-Vis spectrophotometric analysis; assay type: ADME, cell membranes; details: pH 7.4, 5 h
[16] = Apparent permeability of the compound across bacterial inner membrane mimic POPE/POPG (6:4) in PBS buffer at pH 7.4 incubated for 5 hrs by PAMPA based UV-Vis spectrophotometric analysis; assay type: ADME
[17] = Apparent permeability of the compound across bacterial inner membrane mimic POPE/POPG (6:4) in PBS buffer assessed as membrane retention at pH 7.4 incubated for 5 hrs by PAMPA based UV-Vis spectrophotometric analysis; assay type: ADME, cell membranes; details: pH 7.4, 5 h
[18] = tested on: Cell membrane; assay: Disruption of membrane integrity in Bacillus subtilis ATCC 6633 assessed as increase in PI uptake at 16 ug/ml measured after 15 mins by SYTO9/PI staining based fluorometric analysis; details: dose 16.0 µg/ml
[19] = tested on: Cell membrane; assay: Disruption of membrane integrity in Pseudomonas aeruginosa ATCC 27853 assessed as increase in PI uptake at 16 ug/ml measured every 15 mins for 6 hrs by SYTO9/PI staining based fluorometric analysis; details: dose 16.0 µg/ml
[20] = tested on: Cell membrane; assay: Disruption of membrane integrity in Enterococcus faecalis ATCC 19433 assessed as increase in PI uptake at 16 ug/ml measured after 15 mins by SYTO9/PI staining based fluorometric analysis; details: dose 16.0 µg/ml
[21] = tested on: Cell membrane; assay: Disruption of membrane integrity in Escherichia coli MG1655 assessed as increase in PI uptake at 16 ug/ml measured every 15 mins for 6 hrs by SYTO9/PI staining based fluorometric analysis; details: dose 16.0 µg/ml
[22] = tested on: Cell membrane; assay: Disruption of membrane integrity in Staphylococcus aureus ATCC 25923 assessed as increase in PI uptake at 16 ug/ml measured every 15 mins for 6 hrs by SYTO9/PI staining based fluorometric analysis; assay type: subcellular; details: dose 16.0 µg/ml
[23] = tested on: Cell membrane; assay: Disruption of membrane integrity in Enterococcus faecalis ATCC 19433 assessed as increase in PI positive cells at 16 ug/ml measured after 1 hr by SYTO9/PI staining based confocal laser scanning microscope analysis; assay type: subcellular; details: dose 16.0 µg/ml
[24] = tested on: Cell membrane; assay: Disruption of membrane integrity in Bacillus subtilis ATCC 6633 assessed as increase in PI positive cells at 16 ug/ml measured after 1 hr by SYTO9/PI staining based confocal laser scanning microscope analysis; assay type: subcellular; details: dose 16.0 µg/ml
[25] = tested on: Cell membrane; assay: Disruption of membrane integrity in Acinetobacter baumannii ATCC 17978 assessed as increase in PI positive cells at 16 ug/ml measured after 1 hr by SYTO9/PI staining based confocal laser scanning microscope analysis; details: dose 16.0 µg/ml
[26] = tested on: Cell membrane; assay: Disruption of membrane integrity in Escherichia coli MG1655 assessed as increase in PI positive cells at 16 ug/ml measured after 1 hr by SYTO9/PI staining based confocal laser scanning microscope analysis; assay type: subcellular; details: dose 16.0 µg/ml
[27] = tested on: Cell membrane; assay: Disruption of membrane integrity in Pseudomonas aeruginosa ATCC 27853 assessed as increase in PI positive cells at 16 ug/ml measured after 1 hr by SYTO9/PI staining based confocal laser scanning microscope analysis; assay type: subcellular; details: dose 16.0 µg/ml
[28] = tested on: Cell membrane; assay: Disruption of membrane integrity in Staphylococcus aureus ATCC 25923 assessed as increase in PI positive cells at 16 ug/ml measured after 1 hr by SYTO9/PI staining based confocal laser scanning microscope analysis; assay type: subcellular; details: dose 16.0 µg/ml
[29] = Hemolytic activity against human RBC at 1 ug/ml incubated for 30 mins (reference value: 0%); assay type: toxicity, cell-based, Erythrocyte; details: human red blood cells (erythrocytes), at 1 µg/mL, read-out: Activity
[30] = Hemolytic activity against human RBC at 2 ug/ml incubated for 30 mins (reference value: 0%); assay type: toxicity, cell-based, Erythrocyte; details: human red blood cells (erythrocytes), at 2 µg/mL, read-out: Activity
[31] = Hemolytic activity against human RBC at 4 ug/ml incubated for 30 mins (reference value: 0%); assay type: toxicity, cell-based, Erythrocyte; details: human red blood cells (erythrocytes), at 4 µg/mL, read-out: Activity
[32] = Hemolytic activity against human RBC at 8 ug/ml incubated for 30 mins (reference value: 0%); assay type: toxicity, cell-based, Erythrocyte; details: human red blood cells (erythrocytes), at 8 µg/mL, read-out: Activity
[33] = Hemolytic activity against human RBC at 16 ug/ml incubated for 30 mins relative to control; assay type: toxicity, cell-based, Erythrocyte; details: human red blood cells (erythrocytes), at 16 µg/mL, read-out: Activity
[34] = Hemolytic activity against human RBC at 32 ug/ml incubated for 30 mins (reference value: 0%); assay type: toxicity, cell-based, Erythrocyte; details: human red blood cells (erythrocytes), at 32 µg/mL, read-out: Activity
[35] = Hemolytic activity against human RBC at 64 ug/ml incubated for 30 mins (reference value: 0%); assay type: toxicity, cell-based, Erythrocyte; details: human red blood cells (erythrocytes), at 64 µg/mL, read-out: Activity
[36] = tested on: Cell membrane; assay: Disruption of membrane integrity in Acinetobacter baumannii ATCC 17978 assessed as increase in PI uptake at 16 ug/ml measured after 1 hr by SYTO9/PI staining based fluorometric analysis; assay type: subcellular; details: dose 16.0 µg/ml
[37] = tested on: Cell membrane; assay: Disruption of membrane integrity in Bacillus subtilis ATCC 6633 assessed as increase in PI uptake at 16 ug/ml measured after 1 hr by SYTO9/PI staining based fluorometric analysis; assay type: subcellular; details: dose 16.0 µg/ml
[38] = tested on: Cell membrane; assay: Disruption of membrane integrity in Enterococcus faecalis ATCC 19433 assessed as increase in PI uptake at 16 ug/ml measured after 1 hr by SYTO9/PI staining based fluorometric analysis; assay type: subcellular; details: dose 16.0 µg/ml
[39] = tested on: Cell membrane; assay: Disruption of membrane integrity in Escherichia coli MG1655 assessed as increase in PI uptake at 16 ug/ml measured after 1 hr by SYTO9/PI staining based fluorometric analysis; assay type: subcellular; details: dose 16.0 µg/ml
[40] = tested on: Cell membrane; assay: Disruption of membrane integrity in Pseudomonas aeruginosa ATCC 27853 assessed as increase in PI uptake at 16 ug/ml measured after 1 hr by SYTO9/PI staining based fluorometric analysis; assay type: subcellular; details: dose 16.0 µg/ml
[41] = tested on: Cell membrane; assay: Disruption of membrane integrity in Staphylococcus aureus ATCC 25923 assessed as increase in PI uptake at 16 ug/ml measured after 1 hr by SYTO9/PI staining based fluorometric analysis; details: dose 16.0 µg/ml

SMILES: N=C(N)NCCCCCCCCN(CCCCCCCCN)C(=O)N(CCCCCCCCN)CCCCCCCCNC(=N)N.O=C(O)C(F)(F)F
- Activity [1]: Active
- Activity [2]: Active
- MIC [3]: 0.5 µg/mL
- MIC [4]: 8 µg/mL
- MIC [5]: 0.25 µg/mL
- MIC [6]: 0.5 µg/mL
- MIC [7]: 2 µg/mL
- MIC [8]: 16 µg/mL
- MIC [9]: 16 µg/mL
- MIC [10]: 32 µg/mL
- Activity [11]: Active
- Papp at 5 h [12]: 0.21 ×10⁻⁶ cm/s
- R% [13]: 36.3%
- Papp at 5 h [14]: 0.19 ×10⁻⁶ cm/s
- R% [15]: 52.4%
- Papp at 5 h [16]: 0.18 ×10⁻⁶ cm/s
- R% [17]: 47.3%
- Activity [18]: Active
- Activity [19]: Active
- Activity [20]: Active
- Activity [21]: Active
- Activity [22]: Active
- Activity [23]: Active
- Activity [24]: Active
- Activity [25]: Active
- Activity [26]: Active
- Activity [27]: Active
- Activity [28]: Active
- hemolysis at 0.5 h, 1 ug/ml [29]: 0%
- hemolysis at 0.5 h, 2 ug/ml [30]: 0%
- hemolysis at 0.5 h, 4 ug/ml [31]: 0%
- hemolysis at 0.5 h, 8 ug/ml [32]: 0%
- hemolysis at 0.5 h, 16 ug/ml [33]: 0.6%
- hemolysis at 0.5 h, 32 ug/ml [34]: 1.6%
- hemolysis at 0.5 h, 64 ug/ml [35]: 2%
- Activity [36]: Active
- Activity [37]: Active
- Activity [38]: Active
- Activity [39]: Active
- Activity [40]: Active
- Activity [41]: Active

SMILES: N=C(N)NCCCCCCCCN(CCCCCCCCNC(=N)NCC1CC1)C(=O)N(CCCCCCCCNC(=N)N)CCCCCCCCNC(=N)NCC1CC1
- Activity [1]: Active
- Activity [2]: Active
- Activity [11]: Active
- Papp at 5 h [14]: 1.88 ×10⁻⁶ cm/s
- R% [15]: 46.1%
- Papp at 5 h [16]: 0.74 ×10⁻⁶ cm/s
- R% [17]: 42.4%
- Activity [18]: Active
- Activity [19]: Active
- Activity [20]: Active
- Activity [21]: Active
- Activity [22]: Active
- Activity [23]: Active
- Activity [24]: Active
- Activity [25]: Active
- Activity [26]: Active
- Activity [27]: Active
- Activity [28]: Active
- hemolysis at 0.5 h, 1 ug/ml [29]: 0%
- hemolysis at 0.5 h, 2 ug/ml [30]: 0.2%
- hemolysis at 0.5 h, 4 ug/ml [31]: 0.4%
- hemolysis at 0.5 h, 8 ug/ml [32]: 0.8%
- hemolysis at 0.5 h, 16 ug/ml [33]: 1.2%
- hemolysis at 0.5 h, 32 ug/ml [34]: 2%
- hemolysis at 0.5 h, 64 ug/ml [35]: 3.4%
- Activity [36]: Active
- Activity [37]: Active
- Activity [38]: Active
- Activity [39]: Active
- Activity [40]: Active
- Activity [41]: Active
